Results as given in patent publication US9403850B2, “Beta-lactamase inhibitors” (priority 2013, dated 2016).
Like-named read-outs stand apart in the source and are kept apart here.

Tests used:
KPC-2 = target: T1, KPC-2 (Klebsiella pneumoniae, UniProt Q9F663); assay: β-Lactamase enzyme inhibition assay, KPC-2 (imipenem substrate); format: biochemical; details: 15 min preincubation at 37° C., read-out: IC50, Class A KPC-2
T1 construct: expressed as native untagged proteins; made in house; host or cells: E. coli BL21(DE3)
Method: (§1) For SHV-5, Kpc-2, p99AmpC and OXA-1 β-lactamases, E. coli BL21(DE3) bacterial cells carrying expression plasmids (expressed as native untagged proteins) for the individual β-lactamases were grown in 1 L of Superbroth (Teknova Inc. Hollister, CA) supplemented with 100 μg/ml kanamycin selection and 1×5052 (0.5% glycerol, 0.05% glucose and 0.2% α-lactose) at 35° C. for 18-20 hours. Cells were harvested by centrifugation (4,000×g, 4° C., 20 min), resuspended in 50 ml of 10 mM HEPES pH 7.5 (1/20 of the initial volume). The cells were lysed by sonication (5 pulses of 45 seconds) at 45 W on ice. The lysates were clarified by centrifugation at 10,000×g for 40 minutes at 4° C. […] Active fractions were pooled concentrated, quantitated by BCA protein determination (Thermo Scientific, Rockford, Ill.), dialyzed into PBS and frozen at −80° C. in 20% glycerol until use.
(§2) An equal volume of diluted enzyme stock was added, and the plates were incubated at 37° C. for 15 min. […] Absorbance at 486 nm was immediately monitored for 10 min using a Biotek Powerwave XS2 microplate spectrophotometer using the GEN5 softweare package (Biotek Instruments, Winooski Vt.). […] Maximum rates of hydrolysis were compared to those in control wells (without inhibitors), and percentages of enzyme inhibition were calculated for each concentration of inhibitor. […]

[1] = system: S. aureus MSSA-7 producing penicillinase PC-1; assay: Broth microdilution MIC assay, partner piperacillin; format: cell-based; details: Staphylococcus aureus, read-out: MIC of Exemplary Compounds in presence of fixed β-lactams, Fixed Pip, S. aureus MSSA-7 PC-1
OXA-1 = target: T2, OXA-1 (Escherichia coli, UniProt P13661); assay: β-Lactamase enzyme inhibition assay, OXA-1 (nitrocefin substrate); format: biochemical; details: nitrocefin substrate 100 μM, 15 min preincubation at 37° C.; read-out: IC50, Class D OXA-1
T2 construct: expressed as native untagged proteins; made in house; host or cells: E. coli BL21(DE3)
Method: as §1, §2

[2] = system: K. pneumoniae A-1797 expressing KPC-2 and VIM-4; assay: Broth microdilution MIC assay, partner meropenem; format: cell-based; details: Klebsiella pneumoniae, read-out: MIC of Exemplary Compounds in presence of fixed β-lactams, Fixed Mero, K.P. A-1797 KPC-2 VIM-4
p99 AmpC = target: T3, p99 AmpC (Enterobacter cloacae, UniProt P05364); assay: β-Lactamase enzyme inhibition assay, p99 AmpC (nitrocefin substrate); format: biochemical; details: nitrocefin substrate 100 μM, 15 min preincubation at 37° C.; read-out: IC50, Class C AmpC
T3 construct: expressed as native untagged proteins; made in house; host or cells: E. coli BL21(DE3)
Method: as §1, §2

[3] = system: E. coli ESBL4 expressing CTX-M-15; assay: Broth microdilution MIC assay, partner ceftazidime;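 note: ceftazidime held fixed at 4 µg/mL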; format: cell-based; details: Escherichia coli, read-out: MIC of Exemplary Compounds in presence of fixed β-lactams, Fixed CAZ, E. coli ESBL4 CTX-M-15
SHV-5 = target: T4, SHV-5 (Klebsiella pneumoniae, UniProt P0A3M1); assay: β-Lactamase enzyme inhibition assay, SHV-5 (cefotaxime substrate); format: biochemical; details: 15 min preincubation at 37° C., read-out: IC50, Class A SHV-5
T4 construct: expressed as native untagged proteins; made in house; host or cells: E. coli BL21(DE3)
Method: as §1, §2

[4] = system: K. pneumoniae 156319 expressing KPC-3; assay: Broth microdilution MIC assay, partner meropenem; format: cell-based; details: Klebsiella pneumoniae, read-out: MIC of Exemplary Compounds in presence of fixed β-lactams, Fixed Mero, K.P. 156319 KPC-3
[5] = system: E. cloacae 144200 expressing Class C P99 AmpC; assay: Broth microdilution MIC assay, partner ceftazidime;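 note: ceftazidime held fixed at 4 µg/mL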; format: cell-based; details: Enterobacter cloacae, read-out: MIC of Exemplary Compounds in presence of fixed β-lactams, Fixed CAZ, E. cl. 144200 p99 AmpC
[6] = system: P. aeruginosa Ps296 expressing VIM-2; assay: Broth microdilution MIC assay, partner meropenem; format: cell-based; details: Pseudomonas aeruginosa, read-out: MIC of Exemplary Compounds in presence of fixed β-lactams, Fixed Mero, P. aerug. Ps296 VIM-2
VIM-2 = target: T5, VIM-2 (Escherichia coli, UniProt Q5U7L7); assay: β-Lactamase enzyme inhibition assay, VIM-2 (nitrocefin substrate); format: biochemical
T5 construct: made in house; host or cells: E. coli BL21(DE3)
Method in brief: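 Purified VIM-2 (Q sepharose anion exchange, HEPES pH 7.5) preincubated with inhibitor 15 min at 37° C. Nitrocefin added at 100 μM final; absorbance at 486 nm monitored 10 min. IC50 from inhibition of initial hydrolysis rate versus inhibitor-free controls.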

[7] = nitrocefin substrate 100 μM, 15 min preincubation at 37° C., read-out: IC50, Class B VIM-2

T2 sequence (P13661 26-276): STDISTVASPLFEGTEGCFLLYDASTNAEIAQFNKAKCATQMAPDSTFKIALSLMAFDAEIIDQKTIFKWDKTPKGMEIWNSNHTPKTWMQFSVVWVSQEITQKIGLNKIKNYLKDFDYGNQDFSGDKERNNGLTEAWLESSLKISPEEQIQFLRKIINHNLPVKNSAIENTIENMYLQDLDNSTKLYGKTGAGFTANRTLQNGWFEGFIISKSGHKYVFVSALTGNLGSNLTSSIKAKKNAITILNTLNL
T1 sequence (Q9F663 25-293 limits assumed): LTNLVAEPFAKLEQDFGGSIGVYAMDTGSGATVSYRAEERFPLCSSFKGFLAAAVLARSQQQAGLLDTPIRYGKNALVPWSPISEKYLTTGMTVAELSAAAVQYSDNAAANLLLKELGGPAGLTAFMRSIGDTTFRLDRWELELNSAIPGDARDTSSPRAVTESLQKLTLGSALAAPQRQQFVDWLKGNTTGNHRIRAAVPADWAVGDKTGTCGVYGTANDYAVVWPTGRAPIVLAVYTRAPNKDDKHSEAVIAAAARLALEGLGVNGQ
T4 sequence (P0A3M1 22-286): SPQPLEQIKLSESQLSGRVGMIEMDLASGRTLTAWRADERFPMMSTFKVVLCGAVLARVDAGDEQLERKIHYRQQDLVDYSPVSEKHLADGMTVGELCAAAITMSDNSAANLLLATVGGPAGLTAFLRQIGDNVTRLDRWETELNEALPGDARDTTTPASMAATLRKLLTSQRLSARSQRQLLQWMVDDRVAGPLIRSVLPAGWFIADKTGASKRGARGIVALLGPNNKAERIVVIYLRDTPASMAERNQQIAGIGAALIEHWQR
T3 sequence (P05364 21-381): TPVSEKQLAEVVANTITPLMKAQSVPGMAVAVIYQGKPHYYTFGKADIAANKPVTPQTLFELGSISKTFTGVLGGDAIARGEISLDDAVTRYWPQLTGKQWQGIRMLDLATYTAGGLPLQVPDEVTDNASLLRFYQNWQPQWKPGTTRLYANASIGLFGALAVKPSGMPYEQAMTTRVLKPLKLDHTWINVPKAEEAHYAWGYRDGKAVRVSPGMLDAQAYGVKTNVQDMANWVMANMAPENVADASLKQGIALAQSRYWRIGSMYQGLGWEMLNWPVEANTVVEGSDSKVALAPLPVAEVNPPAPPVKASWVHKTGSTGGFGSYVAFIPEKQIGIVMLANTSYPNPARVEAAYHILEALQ

Row | Compound | IC50 (KPC-2) [nM] | MIC ([1]; fixed piperacillin 4 μg/mL) [µg/mL] | IC50 (OXA-1) [nM] | MIC [2] [µg/mL] | IC50 (p99 AmpC) [nM] | MIC [3] [µg/mL] | IC50 (SHV-5) [nM] | MIC [4] [µg/mL] | MIC [5] [µg/mL] | MIC [6] [µg/mL] | IC50 (VIM-2; [7]) [nM] | MIC [1] [µg/mL] | IC50 (VIM-2) [nM]
1 | O=C(Cc1ccc2c(c1)CNC2)N[C@H]1Cc2cccc(C(=O)O)c2OB1O [Example 36, (3R)-2-hydroxy-3-[(2-isoindolin-5-ylacetyl)amino]-3,4-dihydro-1,2-benzoxaborinine-8-carboxylic acid] | < 100 | < 4 | < 100 | > 32 | < 100 | < 4 | < 100 | < 4 | < 4 | < 4 | 100 to 1000 |  | 
2 | NCCNc1ccc(CC(=O)N[C@H]2Cc3cccc(C(=O)O)c3OB2O)cn1 [Example 60, (R)-3-(2-(6-(2-aminoethylamino)pyridin-3-yl)acetamido)-2-hydroxy-3,4-dihydro-2H-benzo[e][1,2]oxaborinine-8-carboxylic acid] |  | < 4 |  | 8 to 32 |  | < 4 |  | < 4 | < 4 | < 4 | 100 to 1000 |  | 
3 | NCCN1Cc2ccc(CC(=O)N[C@H]3Cc4cccc(C(=O)O)c4OB3O)cc2C1 [Example 49, (R)-3-{2-[2-(2-Amino-ethyl)-2,3-dihydro-1H-isoindol-5-yl]-acetylamino}-2-hydroxy-3,4-dihydro-2H-benzo[e][1,2]oxaborinine-8-carboxylic acid] |  | < 4 |  | > 32 |  | < 4 |  | < 4 | < 4 | < 4 | 100 to 1000 |  | 
4 | O=C(O)c1cccc2c1OB(O)[C@@H](NC(=O)C1(c3ccccc3)CCNCC1)C2 [Example 3, (R)-2-hydroxy-3-(4-phenylpiperidine-4-carboxamido)-3,4-dihydro-2H-benzo[e][1,2]oxaborinine-8-carboxylic acid] |  |  |  | > 32 |  | < 4 |  | < 4 | < 4 | 8 to 32 |  | > 32 | 1000 to 10000
5 | NCc1cc(C(=O)N[C@H]2Cc3cccc(C(=O)O)c3OB2O)cnc1CN [Example 62, (R)-3-(5,6-bis(aminomethyl)nicotinamido)-2-hydroxy-3,4-dihydro-2H-benzo[e][1,2]oxaborinine-8-carboxylic acid] |  | < 4 |  | < 4 |  | < 4 |  | < 4 | < 4 | < 4 | 100 to 1000 |  | 
6 | O=C(N[C@H]1Cc2cccc(C(=O)O)c2OB1O)c1cnc2c(c1)CNC2 [Example 50, (3R)-3-(6,7-dihydro-5H-pyrrolo[3,4-b]pyridine-3-carbonylamino)-2-hydroxy-3,4-dihydro-1,2-benzoxaborinine-8-carboxylic acid] |  | < 4 |  | > 32 |  | < 4 |  | < 4 | < 4 | < 4 | 100 to 1000 |  | 
7 | O=C(N[C@H]1Cc2cccc(C(=O)O)c2OB1O)c1ccc2c(c1)CN(Cc1cccnc1)C2 [Example 12, (R)-2-hydroxy-3-(2-(pyridin-3-ylmethyl)isoindoline-5-carboxamido)-3,4-dihydro-2H-benzo[e][1,2]oxaborinine-8-carboxylic acid] |  | < 4 |  | 8 to 32 |  | 8 to 32 |  | 8 to 32 | < 4 | > 32 | 100 to 1000 |  | 
8 | O=C(N[C@H]1Cc2cccc(C(=O)O)c2OB1O)c1ccc2nc[nH]c2c1 [Example 34, (R)-3-[(3H-Benzoimidazole-5-carbonyl)-amino]-2-hydroxy-3,4-dihydro-2H-benzo[e][1,2]oxaborinine-8-carboxylic acid] |  | < 4 |  | 8 to 32 |  | < 4 |  | < 4 | < 4 | < 4 | 100 to 1000 |  | 
9 | NCCn1ccc2ccc(C(=O)N[C@H]3Cc4cccc(C(=O)O)c4OB3O)cc21 [Example 41, (R)-3-{[1-(2-Amino-ethyl)-1H-indole-6-carbonyl]-amino}-2-hydroxy-3,4-dihydro-2H-benzo[e][1,2]oxaborinine-8-carboxylic acid] |  | < 4 |  | < 4 |  | < 4 |  | > 32 | < 4 | 8 to 32 | < 100 |  | 
10 | NCCN1Cc2ccc(C(=O)N[C@H]3Cc4cccc(C(=O)O)c4OB3O)cc2C1 [Example 11, (R)-3-(2-(2-aminoethyl)isoindoline-5-carboxamido)-2-hydroxy-3,4-dihydro-2H-benzo[e][1,2]oxaborinine-8-carboxylic acid] |  | < 4 |  | < 4 |  | < 4 |  | < 4 | < 4 | > 32 | 100 to 1000 |  | 
11 | N=C(N)N1Cc2ccc(C(=O)N[C@H]3Cc4cccc(C(=O)O)c4OB3O)cc2C1 [Example 16, (R)-3-(2-carbamimidoylisoindoline-5-carboxamido)-2-hydroxy-3,4-dihydro-2H-benzo[e][1,2]oxaborinine-8-carboxylic acid] |  | < 4 |  | < 4 |  | < 4 |  | < 4 | < 4 | < 4 | < 100 |  | 
12 | Cc1ccc(C(=O)N[C@H]2Cc3cccc(C(=O)O)c3OB2O)cc1N [Example 23, (R)-3-(3-amino-4-methylbenzamido)-2-hydroxy-3,4-dihydro-2H-benzo[e][1,2]oxaborinine-8-carboxylic acid] |  | < 4 |  | 8 to 32 |  | < 4 |  | < 4 | < 4 | 8 to 32 | 100 to 1000 |  | 
13 | O=C(N[C@H]1Cc2cccc(C(=O)O)c2OB1O)c1ccc2cc[nH]c2c1 [Example 30, (R)-2-hydroxy-3-(1H-indole-6-carboxamido)-3,4-dihydro-2H-benzo[e][1,2]oxaborinine-8-carboxylic acid] |  | < 4 |  | 8 to 32 |  | < 4 |  | < 4 | < 4 | < 4 | 100 to 1000 |  | 
